The record followed here is ChEMBL document CHEMBL4385602, “Stereoselective synthesis and biological evaluation as inhibitors of hepatitis C virus RNA polymerase of GSK3082 analogues with structural diversity at the 5-position” (Eur J Med Chem, 2019).

The term CC50 denotes the concentration at which the toxic effect on the cells reaches its halfway point.

The nature of series [1]: Cytotoxicity against human Huh5-2 cells assessed as reduction in cell viability measured after 3 days by CellTiter 96 AQueous One Solution Cell Proliferation assay. In kind it is cell-based, Huh-5-2.
The target in series [2] is RNA-directed RNA polymerase (Hepacivirus hominis) (UniProt O39930). Description: Inhibition of NS5B RNA dependent RNA polymerase in HCV 1b Con1 infected in human Huh5-2 cells assessed as reduction in viral RNA replication measured after 3 days by luciferase reporter gene assay. In kind it is cell-based. To be noted: Hepatitis C virus subtype 1b. Background: In a reporter assay the amount or activity of a reporter protein is the signal.
Chain of RNA-directed RNA polymerase (Hepacivirus hominis) (O39930 1-591): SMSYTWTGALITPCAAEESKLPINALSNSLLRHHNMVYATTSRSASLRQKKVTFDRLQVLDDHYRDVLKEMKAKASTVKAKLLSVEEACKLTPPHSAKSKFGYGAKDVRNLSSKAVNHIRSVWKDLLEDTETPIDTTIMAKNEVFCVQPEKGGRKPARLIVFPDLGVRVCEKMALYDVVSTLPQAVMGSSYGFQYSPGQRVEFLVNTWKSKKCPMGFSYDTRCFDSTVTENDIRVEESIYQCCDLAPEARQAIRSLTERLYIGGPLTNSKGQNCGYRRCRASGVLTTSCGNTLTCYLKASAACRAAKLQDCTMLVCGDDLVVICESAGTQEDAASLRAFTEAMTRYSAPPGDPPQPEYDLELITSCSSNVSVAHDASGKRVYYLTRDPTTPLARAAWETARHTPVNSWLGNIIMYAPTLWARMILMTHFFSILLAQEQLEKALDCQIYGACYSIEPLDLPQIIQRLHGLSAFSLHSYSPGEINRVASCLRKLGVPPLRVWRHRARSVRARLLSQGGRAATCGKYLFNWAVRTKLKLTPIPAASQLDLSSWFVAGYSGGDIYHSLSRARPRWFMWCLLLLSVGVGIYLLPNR

Turning to `COC[C@H]1C[C@@](CC(C)C)(C(=O)O)N(C(=O)c2ccc(C(C)(C)C)c(OC)c2)[C@H]1CF`, the cytotoxic concentration (CC50) at 72 h in series [1] was more than 120 µM. For the same compound, the inhibition result in series [2] was “Dose-dependent effect”.

On to `COC[C@H]1C[C@@](CC(C)C)(C(=O)O)N(C(=O)c2ccc(C(C)(C)C)c(OC)c2)[C@H]1COC`, for which the 50% cytotoxic concentration (CC50) at 72 h in series [1] is more than 120 µM. The inhibition entry in series [2] is “Dose-dependent effect”.

Turning to `COC[C@H]1C[C@@](CC(C)C)(C(=O)O)N(C(=O)c2ccc(C(C)(C)C)c(OC)c2)[C@H]1C(=O)OC`, the CC50 at 72 h in series [1] is more than 120 µM. The inhibition entry in series [2] is “Dose-dependent effect”.

Consider `COC[C@H]1C[C@@](CC(C)C)(C(=O)O)N(C(=O)c2ccc(C(C)(C)C)c(OC)c2)[C@H]1CNC(C)=O`, for which the CC50 at 72 h in series [1] was more than 120 µM. In series [2], the inhibition result was “Dose-dependent effect”.

With `COC[C@H]1C[C@@](CC(C)C)(C(=O)O)N(C(=O)c2ccc(C(C)(C)C)c(OC)c2)[C@@H]1c1nccs1`, in series [1], the CC50 at 72 h is 200 µM. Further, the inhibition entry in series [2] is “Dose-dependent effect”.

`COC[C@H]1C[C@@](CC(C)C)(C(=O)O)N(C(=O)c2ccc(C(C)(C)C)c(OC)c2)[C@H]1CN=[N+]=[N-]`: in series [1], the CC50 at 72 h was more than 120 µM. In addition, the inhibition result in series [2] is “Dose-dependent effect”.

Consider `COC[C@H]1C[C@@](CC(C)C)(C(=O)O)N(C(=O)c2ccc(C(C)(C)C)c(OC)c2)[C@H]1COC(=O)OC`, for which, in series [1], the half-maximal cytotoxic concentration (CC50) at 72 h is more than 120 µM. Further, in series [2], the inhibition result is “Dose-dependent effect”.

Turning to `COC[C@H]1C[C@@](CC(C)C)(C(=O)O)N(C(=O)c2ccc(C(C)(C)C)c(OC)c2)[C@H]1[C@H]1COC(C)(C)O1`, the CC50 at 72 h in series [1] is more than 120 µM. In addition, the inhibition result in series [2] was “Dose-dependent effect”.

As for `CC[C@H]1[C@@H](COC)C[C@@](CC(C)C)(C(=O)O)N1C(=O)c1ccc(C(C)(C)C)c(OC)c1`, the CC50 at 72 h in series [1] is 200 µM. The inhibition entry in series [2] is “Dose-dependent effect”.

For the compound `COC[C@H]1C[C@@](CC(C)C)(C(=O)O)N(C(=O)c2ccc(C(C)(C)C)c(OC)c2)[C@H]1C(N)=O`, the CC50 at 72 h in series [1] is more than 120 µM. Also, the inhibition entry in series [2] is “Dose-dependent effect”.

For the compound `COC[C@H]1C[C@@](CC(C)C)(C(=O)O)N(C(=O)c2ccc(C(C)(C)C)c(OC)c2)[C@H]1[C@H]1COC(=O)O1`, in series [1], the CC50 at 72 h was more than 120 µM. Also, the inhibition result in series [2] was “Dose-dependent effect”.

Take `COC[C@H]1C[C@@](CC(C)C)(C(=O)O)N(C(=O)c2ccc(C(C)(C)C)c(OC)c2)[C@H]1COC(C)=O`: in series [1], the CC50 at 72 h is more than 120 µM. Besides, in series [2], the inhibition entry is “Dose-dependent effect”.

As for `CCOC(=O)c1csc([C@H]2[C@@H](COC)C[C@@](CC(C)C)(C(=O)O)N2C(=O)c2ccc(C(C)(C)C)c(OC)c2)n1`, in series [1], the CC50 at 72 h stood at 200 µM. The inhibition result in series [2] was “Dose-dependent effect”.

On to `COC[C@H]1C[C@@](CC(C)C)(C(=O)O)N(C(=O)c2ccc(C(C)(C)C)c(OC)c2)[C@H]1c1nccs1`, for which, in series [1], the cytotoxic concentration (CC50) at 72 h was more than 120 µM. In series [2], the inhibition result was “Dose-dependent effect”.

With `C=CCOC[C@H]1[C@@H](COC)C[C@@](CC(C)C)(C(=O)O)N1C(=O)c1ccc(C(C)(C)C)c(OC)c1`, in series [1], the CC50 at 72 h is more than 120 µM. The inhibition result in series [2] was “Dose-dependent effect”.
